Target: T1, ApL (A. pediades laccase) (Agrocybe pediades, UniProt A0A8H4QKE8, V194E/N433D)
T1 construct: gene D9613_012768
Conditions: read-out: IC50 (mM or v/v % ^a); DM variant; ABTS about 3 mM, citrate-phosphate pH 3; fluoride, TNC site

**Q.** `F` [NaF] was tested. Which IC50 did it give?
**A.** Its IC50 is 0.051 ± 0.002 mM.

— PMC8147764, “Heterologous Expression, Engineering and Characterization of a Novel Laccase of Agrocybe pediades with Promising Properties as Biocatalyst” (Journal of Fungi, 2021)
